US11453703B2, “Heterotandem bicyclic peptide complexes” (BicycleTX Limited, priority 2018, dated 2022)

Target: CD137 (Homo sapiens, UniProt Q07011)
Assay: CD137 reporter assay, co-culture with PD-L1 expressing cell line RKO
Type: cell-based
Design: host or cells: Jurkat reporter cells
Conditions: tumour target PD-L1, co-culture with RKO, 6 h; for fold induction: read-out: Fold Induction over Background
Method: Culture medium referred to as R1 media is prepared by adding 1% FBS to RPMI-1640 (component of Promega kit CS196005). Serial dilutions of test articles in R1 are prepared in a sterile 96 well-plate. Use 25 μl per well of test articles or R1 (as a background control) to designated wells in white cell culture plate. Tumour cells* are harvested and resuspended at a concentration of 400,000 cells/mL in R1 media. Twenty five (25) μL/well tumour cells are used in white cell culture plate. Jurkat cells (Promega kit CS196005, 0.5 mL) are thawed in the water bath and then added to 5 ml pre-warmed R1 medium. Twenty five (25) μL/well Jurkat cells are used in white cell culture plate. Incubate the cells and test articles for 6h at 37° C., 5% CO2. At the end of 6 h, add 75 μl/well Bio-Glo™ (Promega) and incubate for 10 min before reading luminescence in a plate reader (Clariostar, BMG). The fold change relative to cells (Jurkat cells+Cell line used in co-culture) is calculated and plotted in GraphPad Prism as log(agonist) vs response to determine EC50 (nM) and Fold Induction over background (Max)

Sequence of CD137 (Q07011 24-255): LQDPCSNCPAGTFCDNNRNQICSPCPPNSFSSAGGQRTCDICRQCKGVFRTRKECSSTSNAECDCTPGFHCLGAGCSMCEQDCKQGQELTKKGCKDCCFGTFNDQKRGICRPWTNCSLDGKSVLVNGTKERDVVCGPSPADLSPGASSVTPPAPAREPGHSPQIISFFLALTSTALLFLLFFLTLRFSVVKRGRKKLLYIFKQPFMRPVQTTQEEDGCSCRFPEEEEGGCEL

## CCCC[C@@H]1NC(=O)[C@H](Cc2ccc(O)cc2)NC(=O)[C@@H]2CCCN2C(=O)[C@H](CC(=O)O)NC(=O)[C@H](C)NC(=O)[C@H](Cc2ccccc2)NC(=O)[C@@H]2CSCCC(=O)N3CN(CN(C3)C(=O)CCSC[C@@H](C(=O)N[C@@H](C)C(N)=O)NC1=O)C(=O)CCSC[C@H](NC(C)=O)C(=O)N[C@@H](CC(C)(C)C)C(=O)N1CCC[C@H]1C(=O)N[C@@H](CCC(=O)O)C(=O)N[C@H](CCCCNC(=O)Cn1cc(CCC(=O)NCCCC[C@@H]3NC(=O)[C@H](CCC(N)=O)NC(=O)[C@@H]4CSCCC(=O)N5CN(CN(C5)C(=O)CCSC[C@@H](C(=O)N5CCC[C@H]5C(=O)N[C@@H](CO)C(=O)N[C@@H](Cc5c[nH]cn5)C(N)=O)NC(=O)[C@H](CC(C)C)NC(=O)[C@H](Cc5c[nH]cn5)NC(=O)[C@H](CC(C)C)NC3=O)C(=O)CCSC[C@H](NC(=O)[C@H](CCCCN)NC(=O)[C@H](CC(=O)O)NC(=O)[C@H](CO)NC(C)=O)C(=O)N[C@@H](CO)C(=O)N[C@@H](C)C(=O)NCC(=O)N[C@@H](Cc3c[nH]c5ccccc35)C(=O)N[C@@H](CC(C)C)C(=O)N[C@@H]([C@@H](C)O)C(=O)N[C@@H](CCSC)C(=O)N4)nn1)C(=O)N1CCC[C@H]1C(=O)N[C@@H](Cc1ccc(O)cc1)C(=O)N2 [BCY11377]
  Fold Induction over Background: 6 fold

## CCCC[C@@H]1NC(=O)[C@H](Cc2ccc(O)cc2)NC(=O)[C@@H]2CCCN2C(=O)[C@H](CC(=O)O)NC(=O)[C@H](C)NC(=O)[C@H](Cc2ccccc2)NC(=O)[C@@H]2CSCCC(=O)N3CN(CN(C3)C(=O)CCSC[C@@H](C(=O)N[C@@H](CNC(=O)Cn3cc(CCC(=O)NCCCC[C@@H]4NC(=O)[C@H](CCC(N)=O)NC(=O)[C@@H]5CSCCC(=O)N6CN(CN(C6)C(=O)CCSC[C@@H](C(=O)N6CCC[C@H]6C(=O)N[C@@H](CO)C(=O)N[C@@H](Cc6c[nH]cn6)C(N)=O)NC(=O)[C@H](CC(C)C)NC(=O)[C@H](Cc6c[nH]cn6)NC(=O)[C@H](CC(C)C)NC4=O)C(=O)CCSC[C@H](NC(=O)[C@H](CCCCN)NC(=O)[C@H](CC(=O)O)NC(=O)[C@H](CO)NC(C)=O)C(=O)N[C@@H](CO)C(=O)N[C@@H](C)C(=O)NCC(=O)N[C@@H](Cc4c[nH]c6ccccc46)C(=O)N[C@@H](CC(C)C)C(=O)N[C@@H]([C@@H](C)O)C(=O)N[C@@H](CCSC)C(=O)N5)nn3)C(N)=O)NC1=O)C(=O)CCSC[C@H](NC(C)=O)C(=O)N[C@@H](CC(C)(C)C)C(=O)N1CCC[C@H]1C(=O)N[C@@H](CCC(=O)O)C(=O)N[C@H](C)C(=O)N1CCC[C@H]1C(=O)N[C@@H](Cc1ccc(O)cc1)C(=O)N2 [BCY11378]
  EC50: 80 nM
  Fold Induction over Background: 3 fold

## CCCC[C@@H]1NC(=O)[C@H](Cc2ccc(O)cc2)NC(=O)[C@@H]2CCCN2C(=O)[C@H](CC(=O)O)NC(=O)[C@H](C)NC(=O)[C@H](Cc2ccccc2)NC(=O)[C@@H]2CSCCC(=O)N3CN(CN(C3)C(=O)CCSC[C@@H](C(=O)N[C@@H](C)C(N)=O)NC1=O)C(=O)CCSC[C@H](NC(C)=O)C(=O)N[C@@H](CC(C)(C)C)C(=O)N1CCC[C@H]1C(=O)N[C@@H](CCCCNC(=O)CCOCCOCCOCCOCCOCCn1cc(CCC(=O)NCCCC[C@@H]3NC(=O)[C@H](CCC(N)=O)NC(=O)[C@@H]4CSCCC(=O)N5CN(CN(C5)C(=O)CCSC[C@@H](C(=O)N5CCC[C@H]5C(=O)N[C@@H](CO)C(=O)N[C@@H](Cc5c[nH]cn5)C(N)=O)NC(=O)[C@H](CC(C)C)NC(=O)[C@H](Cc5c[nH]cn5)NC(=O)[C@H](CC(C)C)NC3=O)C(=O)CCSC[C@H](NC(=O)[C@H](CCCCN)NC(=O)[C@H](CC(=O)O)NC(=O)[C@H](CO)NC(C)=O)C(=O)N[C@@H](CO)C(=O)N[C@@H](C)C(=O)NCC(=O)N[C@@H](Cc3c[nH]c5ccccc35)C(=O)N[C@@H](CC(C)C)C(=O)N[C@@H]([C@@H](C)O)C(=O)N[C@@H](CCSC)C(=O)N4)nn1)C(=O)N[C@H](C)C(=O)N1CCC[C@H]1C(=O)N[C@@H](Cc1ccc(O)cc1)C(=O)N2 [BCY11379]
  fold induction: 6

## CCCC[C@@H]1NC(=O)[C@H](Cc2ccc(O)cc2)NC(=O)[C@@H]2CCCN2C(=O)[C@H](CC(=O)O)NC(=O)[C@H](C)NC(=O)[C@H](Cc2ccccc2)NC(=O)[C@@H]2CSCCC(=O)N3CN(CN(C3)C(=O)CCSC[C@@H](C(=O)N[C@@H](C)C(N)=O)NC1=O)C(=O)CCSC[C@H](NC(C)=O)C(=O)N[C@@H](CC(C)(C)C)C(=O)N1CCC[C@H]1C(=O)N[C@@H](CCC(=O)O)C(=O)N[C@H](CCCCNC(=O)CCOCCOCCOCCOCCOCCn1cc(CCC(=O)NCCCC[C@@H]3NC(=O)[C@H](CCC(N)=O)NC(=O)[C@@H]4CSCCC(=O)N5CN(CN(C5)C(=O)CCSC[C@@H](C(=O)N5CCC[C@H]5C(=O)N[C@@H](CO)C(=O)N[C@@H](Cc5c[nH]cn5)C(N)=O)NC(=O)[C@H](CC(C)C)NC(=O)[C@H](Cc5c[nH]cn5)NC(=O)[C@H](CC(C)C)NC3=O)C(=O)CCSC[C@H](NC(=O)[C@H](CCCCN)NC(=O)[C@H](CC(=O)O)NC(=O)[C@H](CO)NC(C)=O)C(=O)N[C@@H](CO)C(=O)N[C@@H](C)C(=O)NCC(=O)N[C@@H](Cc3c[nH]c5ccccc35)C(=O)N[C@@H](CC(C)C)C(=O)N[C@@H]([C@@H](C)O)C(=O)N[C@@H](CCSC)C(=O)N4)nn1)C(=O)N1CCC[C@H]1C(=O)N[C@@H](Cc1ccc(O)cc1)C(=O)N2 [BCY11380]
  Fold Induction over Background: 7 fold

## CCCC[C@@H]1NC(=O)[C@H](Cc2ccc(O)cc2)NC(=O)[C@@H]2CCCN2C(=O)[C@H](CC(=O)O)NC(=O)[C@H](C)NC(=O)[C@H](Cc2ccccc2)NC(=O)[C@@H]2CSCCC(=O)N3CN(CN(C3)C(=O)CCSC[C@@H](C(=O)N[C@@H](CNC(=O)CCOCCOCCOCCOCCOCCn3cc(CCC(=O)NCCCC[C@@H]4NC(=O)[C@H](CCC(N)=O)NC(=O)[C@@H]5CSCCC(=O)N6CN(CN(C6)C(=O)CCSC[C@@H](C(=O)N6CCC[C@H]6C(=O)N[C@@H](CO)C(=O)N[C@@H](Cc6c[nH]cn6)C(N)=O)NC(=O)[C@H](CC(C)C)NC(=O)[C@H](Cc6c[nH]cn6)NC(=O)[C@H](CC(C)C)NC4=O)C(=O)CCSC[C@H](NC(=O)[C@H](CCCCN)NC(=O)[C@H](CC(=O)O)NC(=O)[C@H](CO)NC(C)=O)C(=O)N[C@@H](CO)C(=O)N[C@@H](C)C(=O)NCC(=O)N[C@@H](Cc4c[nH]c6ccccc46)C(=O)N[C@@H](CC(C)C)C(=O)N[C@@H]([C@@H](C)O)C(=O)N[C@@H](CCSC)C(=O)N5)nn3)C(N)=O)NC1=O)C(=O)CCSC[C@H](NC(C)=O)C(=O)N[C@@H](CC(C)(C)C)C(=O)N1CCC[C@H]1C(=O)N[C@@H](CCC(=O)O)C(=O)N[C@H](C)C(=O)N1CCC[C@H]1C(=O)N[C@@H](Cc1ccc(O)cc1)C(=O)N2 [BCY11381]
  fold induction: 7
